Experimental data published in paper PMC10918664, “New Triazole-Based Potent Inhibitors of Human Factor XIIa as Anticoagulants” (ACS Omega, 2024).
Read-outs that look alike come from different tables or passages of the source.

Tests used:
[1] = molecular target: T1, thrombin (factor IIa) (Homo sapiens, UniProt P00734); assay: Inhibition of thrombin, chromogenic substrate hydrolysis assay; assay type: biochemical; details: for HS (Hill slope) / ΔY (%) / IC50: thrombin; for selectivity index (IC50 enzyme/IC50 FXIIa): thrombin over FXIIa; for IC50: pH 7.4, 37 °C
T1 construct: The prothrombinase complex converts prothrombin (FII) to thrombin (FIIa); purchased Haematologic Technologies (Essex Junction, VT); host or cells: human plasma
Procedure: (§1) The selectivity was evaluated against thrombin and factors IXa, Xa, and XIa.
(§2) These assays were performed by using substrates and conditions appropriate for the enzyme being studied. To conduct selectivity analysis, various concentrations of the inhibitors were utilized, and the residual enzyme activity was assessed at each concentration. […] This allowed for the determination of the corresponding IC50 and efficacy of the enzyme–inhibitor complex. The KM of the chromogenic substrate with its enzyme was employed to ascertain the concentration of the chromogenic substrate used in the inhibition studies.

[2] = molecular target: T2, FXIa (Homo sapiens, UniProt P03951); assay: Inhibition of FXIa, chromogenic substrate hydrolysis assay; assay type: biochemical; details: for selectivity index (IC50 enzyme/IC50 FXIIa): FXIa over FXIIa; for IC50: pH 7.4, 37 °C
T2 construct: purchased Haematologic Technologies (Essex Junction, VT); host or cells: human plasma
Procedure: as §1, §2

[3] = molecular target: T3, human FXIIa (Homo sapiens, UniProt P00748); assay: Direct inhibition of human FXIIa, chromogenic substrate hydrolysis assay; details: for HS (Hill slope) / ΔY (%) efficacy of inhibition: pH 7.4, 37 °C; for subclass of inhibitor based on selectivity studies: versus thrombin, FIXa, FXa, FXIa; for significant inhibitory activity against FXIIa in the screening: at 200 μM
T3 sequence (P00748 373-615 limits assumed): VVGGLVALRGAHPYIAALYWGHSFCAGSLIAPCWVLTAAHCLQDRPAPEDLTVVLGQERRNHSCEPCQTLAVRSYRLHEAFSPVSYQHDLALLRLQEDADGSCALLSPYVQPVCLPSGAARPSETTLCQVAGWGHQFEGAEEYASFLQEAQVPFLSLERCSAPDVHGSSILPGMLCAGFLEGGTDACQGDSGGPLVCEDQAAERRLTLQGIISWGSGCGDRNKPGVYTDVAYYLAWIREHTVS
T3 sequence (P00748 20-372 partner limits assumed): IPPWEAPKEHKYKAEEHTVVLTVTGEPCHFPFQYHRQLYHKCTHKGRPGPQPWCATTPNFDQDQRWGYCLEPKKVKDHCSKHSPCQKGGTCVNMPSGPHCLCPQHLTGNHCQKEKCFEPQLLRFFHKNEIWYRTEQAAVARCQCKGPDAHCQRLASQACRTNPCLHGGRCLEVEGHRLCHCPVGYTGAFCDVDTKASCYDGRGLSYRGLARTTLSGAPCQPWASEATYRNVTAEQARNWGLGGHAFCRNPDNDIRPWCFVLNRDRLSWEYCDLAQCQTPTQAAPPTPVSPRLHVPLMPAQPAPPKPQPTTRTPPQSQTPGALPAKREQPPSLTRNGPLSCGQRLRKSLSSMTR
Procedure: The slope of the resulting line corresponds to the residual enzyme activity, and the change in residual enzyme activity, relative to the concentration of the inhibitor, is plotted and fitted using the logistic eq 1. […] In this setup, each well of the 96-well microplate contained 175 μL of pH 7.4 TrisHCl buffer, to which 5 μL of potential inhibitors (or vehicle) and 5 μL of human FXIIa (stock concentration: 200 nM) were added sequentially. […] The relative residual FXIIa activity at each inhibitor concentration was computed by comparing the FXIIa activity in the absence and presence of the inhibitor. To obtain the potency (IC50) and efficacy (ΔY) of inhibition, the dose dependence of residual FXIIa activity was fitted to the logistic eq 1.

[4] = molecular target: T1, thrombin (factor IIa); set-up: method as in PMID 36321236; details: previously reported inhibitor, in figure; read-out: FIIa IC50; cited from earlier work
[5] = system: human plasma; set-up: method as in PMID 36321236; details: previously reported inhibitor, in figure; read-out: APTT (EC×1.5); cited from earlier work
[6] = molecular target: T4, FIXa (Homo sapiens, UniProt P00740); assay: Inhibition of FIXa, chromogenic substrate hydrolysis assay; assay type: biochemical; details: for IC50: FIXa, pH 7.4, 37 °C
T4 construct: purchased Haematologic Technologies (Essex Junction, VT); host or cells: human plasma
Procedure: as §1, §2

[7] = system: human plasma; assay: Activated partial thromboplastin time (APTT) clotting assay; assay type: biochemical
Procedure: The APTT assay is employed to assess the impact of a new potential anticoagulant on clotting driven by the contact/intrinsic pathway, involving FIXa, FXIa, and FXIIa. Conversely, the PT assay is utilized to gauge the impact of the new potential anticoagulant on the extrinsic pathway of coagulation, which includes FVIIa. […] In the PT assay, thromboplastin-D was created by adding 4 mL of distilled water, and the resulting mixture was warmed to 37 °C. […] Upon the addition of 200 μL of prewarmed thromboplastin-D reagent, the clotting time was recorded. In the APTT assay, 90 μL of citrated human plasma was combined with 10 μL of the molecule of interest (or the vehicle) and 100 μL of prewarmed 0.2% ellagic acid. Following a 4 min incubation at 37 °C, clotting was initiated by introducing 100 μL of prewarmed 0.025 M CaCl2, and the clotting time was recorded. In both assays, approximately nine or more concentrations of molecules were employed to generate concentration vs effect profiles. The data were then plotted against a quadratic trendline, enabling the estimation of the concentration required to double the clotting time. Clotting times were similarly measured using 10 μL of highly purified water (negative control). The positive controls used in APTT and PT assays were (1) UFH, antithrombin activator; (2) argatroban, a clinically used thrombin inhibitor; (3) rivaroxaban, a clinically used FXa inhibitor; and (4) C6B7, a monoclonal antibody FXIIa inhibitor.

[8] = system: human plasma; assay: Prothrombin time (PT) clotting assay; assay type: biochemical; details: highest concentration of 2500 μM
Procedure: The APTT assay is employed to assess the impact of a new potential anticoagulant on clotting driven by the contact/intrinsic pathway, involving FIXa, FXIa, and FXIIa. Conversely, the PT assay is utilized to gauge the impact of the new potential anticoagulant on the extrinsic pathway of coagulation, which includes FVIIa. […] In the PT assay, thromboplastin-D was created by adding 4 mL of distilled water, and the resulting mixture was warmed to 37 °C. […] Upon the addition of 200 μL of prewarmed thromboplastin-D reagent, the clotting time was recorded. In the APTT assay, 90 μL of citrated human plasma was combined with 10 μL of the molecule of interest (or the vehicle) and 100 μL of prewarmed 0.2% ellagic acid. Following a 4 min incubation at 37 °C, clotting was initiated by introducing 100 μL of prewarmed 0.025 M CaCl2, and the clotting time was recorded. In both assays, approximately nine or more concentrations of molecules were employed to generate concentration vs effect profiles. The data were then plotted against a quadratic trendline, enabling the estimation of the concentration required to double the clotting time. Clotting times were similarly measured using 10 μL of highly purified water (negative control). […]

[9] = molecular target: T5, FXa (Homo sapiens, UniProt P00742); assay: Inhibition of FXa, chromogenic substrate hydrolysis assay; assay type: biochemical
T5 construct: purchased Haematologic Technologies (Essex Junction, VT); host or cells: human plasma
Procedure: as §1, §2

[10] = human FXIIa, Tris–HCl buffer pH 7.4, 37 °C

T4 sequence (P00740 227-461 limits assumed): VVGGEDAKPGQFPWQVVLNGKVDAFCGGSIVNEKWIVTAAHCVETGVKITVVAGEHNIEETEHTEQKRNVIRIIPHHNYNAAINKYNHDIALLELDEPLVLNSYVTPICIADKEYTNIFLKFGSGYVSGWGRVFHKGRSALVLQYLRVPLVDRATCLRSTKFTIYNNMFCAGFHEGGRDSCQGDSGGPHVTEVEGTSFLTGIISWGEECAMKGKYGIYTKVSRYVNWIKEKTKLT
T4 sequence (P00740 47-191 partner limits assumed): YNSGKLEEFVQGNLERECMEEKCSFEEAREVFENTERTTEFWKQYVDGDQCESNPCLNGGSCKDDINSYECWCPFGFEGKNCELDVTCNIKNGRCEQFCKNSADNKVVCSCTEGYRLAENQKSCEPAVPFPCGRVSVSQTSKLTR
T5 sequence (P00742 235-488 limits assumed): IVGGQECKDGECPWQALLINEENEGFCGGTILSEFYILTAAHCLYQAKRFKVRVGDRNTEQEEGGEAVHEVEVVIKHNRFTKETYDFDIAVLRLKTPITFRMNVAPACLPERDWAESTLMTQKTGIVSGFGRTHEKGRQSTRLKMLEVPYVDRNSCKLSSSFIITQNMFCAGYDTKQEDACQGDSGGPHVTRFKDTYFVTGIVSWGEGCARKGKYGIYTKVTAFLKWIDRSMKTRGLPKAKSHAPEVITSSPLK
T5 sequence (P00742 41-179 partner limits assumed): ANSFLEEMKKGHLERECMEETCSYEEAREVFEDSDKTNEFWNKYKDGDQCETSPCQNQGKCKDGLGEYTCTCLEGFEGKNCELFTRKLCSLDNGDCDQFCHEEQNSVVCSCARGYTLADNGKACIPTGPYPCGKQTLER
T2 sequence (P03951 388-625 limits assumed): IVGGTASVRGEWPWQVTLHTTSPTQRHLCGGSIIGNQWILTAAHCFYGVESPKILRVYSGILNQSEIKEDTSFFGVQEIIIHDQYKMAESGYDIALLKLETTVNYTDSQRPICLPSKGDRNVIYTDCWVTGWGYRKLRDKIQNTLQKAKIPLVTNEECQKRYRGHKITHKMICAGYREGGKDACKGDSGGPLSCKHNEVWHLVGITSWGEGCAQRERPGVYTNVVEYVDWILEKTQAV
T2 sequence (P03951 19-387 partner limits assumed): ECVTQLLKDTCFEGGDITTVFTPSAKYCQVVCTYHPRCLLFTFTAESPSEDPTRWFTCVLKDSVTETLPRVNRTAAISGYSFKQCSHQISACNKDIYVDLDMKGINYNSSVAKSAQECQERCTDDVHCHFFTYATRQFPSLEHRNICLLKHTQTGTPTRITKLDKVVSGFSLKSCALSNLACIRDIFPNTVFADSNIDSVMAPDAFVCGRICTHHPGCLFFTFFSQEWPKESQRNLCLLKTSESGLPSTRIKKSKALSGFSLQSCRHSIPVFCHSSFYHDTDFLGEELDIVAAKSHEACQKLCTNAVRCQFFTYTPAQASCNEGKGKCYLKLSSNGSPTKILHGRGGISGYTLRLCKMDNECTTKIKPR

SMILES	HS (Hill slope) [1]	ΔY (%) [1] [%]	IC50 [1] [µM]	IC50 ([2]; FXIa) [µM]	IC50 [3] [µM]	HS (Hill slope) ([3]; human FXIIa)	ΔY (%) efficacy of inhibition ([3]; human FXIIa) [%]	further results
COC(=O)c1nc(N)n(C(=O)c2ccccc2Br)n1 [compound 20]	0.9 ± 0.1	113 ± 8	0.09 ± 0.02	> 50	0.08 ± 0.01	0.8 ± 0.1	76 ± 5	selectivity index (IC50 enzyme/IC50 FXIIa) [1]: 1.13; selectivity index (IC50 enzyme/IC50 FXIIa) [2]: >625; subclass of inhibitor based on selectivity studies [3]: dual inhibitors of FXIIa as well as thrombin
COC(=O)c1nc(N)n(C(=O)c2ccccc2)n1 [compound 9]	1.1 ± 0.2	89 ± 5	0.054 ± 0.008	> 50	–	1.1 ± 0.1	92 ± 3	selectivity index (IC50 enzyme/IC50 FXIIa) [1]: 0.23; IC50 ([3]; human FXIIa): 0.24 ± 0.01 µM
CCOC(=O)c1nc(N)n(C(=O)c2ccccc2)n1 [compound 31]	–	–	–	–	7.9	0.9 ± 0.1	91 ± 9	–
O=C(O)c1ncn(-c2ccccc2)n1 [compound 14]	–	–	–	–	–	–	–	significant inhibitory activity against FXIIa in the screening [3]: none
COC(=O)c1nc(N)n(C(=O)c2ccc(C(C)(C)C)cc2)n1 [RA, reference compound]	–	–	–	–	–	1.7 ± 0.4	105 ± 8	IC50 [4]: 0.235 µM; IC50 [3, 10]: 0.11 ± 0.01 µM; EC50 [5]: 340 µM
O=C(O)Cc1nc(-c2ccccc2)n[nH]1 [compound 15]	–	–	–	–	–	–	–	significant inhibitory activity against FXIIa in the screening [3]: none
COC(=O)c1nc(N)n(C(=O)c2ccc(Cl)cc2)n1 [compound 19]	–	–	–	–	7.8	0.8 ± 0.1	102 ± 5	fold decrease in FXIIa inhibition potency ([3]; relative to inhibitor 7 (chlorine ortho to para)): ~4.6 fold
COC(=O)c1nc(N)n(C(C)=O)n1 [compound 32]	–	–	–	–	6.3	0.9 ± 0.2	67 ± 8	–
COc1cc(OC)cc(C(=O)n2cnnc2N)c1 [compound 30]	1.0 ± 0.3	53 ± 16	0.25 ± 0.14	–	–	–	–	–
COC(=O)c1nc(N)n(C(=O)c2ccccc2Cl)n1 [compound 7]	–	–	–	25.9 ± 4.4	1.7	–	–	IC50 [6]: > 200 µM
Cc1cc(C)cc(C(=O)n2cnnc2N)c1 [compound 26]	–	–	> 50	–	–	–	–	–
O=C(O)c1nc(NS(=O)(=O)c2ccccc2[N+](=O)[O-])n[nH]1 [compound 13]	–	–	–	–	–	–	–	effect on APTT ([7]; highest concentration of 2500 μM): did not affect; effect on PT [8]: did not affect; significant inhibitory activity against FXIIa in the screening [3]: none
Cc1ccc(S(=O)(=O)n2cnc([N+](=O)[O-])n2)cc1 [compound 12]	–	–	–	–	–	–	–	significant inhibitory activity against FXIIa in the screening [3]: none
COC(=O)c1nc(N)n(C(=O)c2cc(OC)c(OC)c(OC)c2)n1 [compound 8]	0.9 ± 0.2	102.0 ± 4.5	0.019 ± 0.004	14.9 ± 1.4	0.045 ± 0.003	1.1 ± 0.1	100 ± 2	fold increased potency regarding the effect on APTT ([7]; relative to RA): ~6 fold; selectivity index (IC50 enzyme/IC50 FXIIa) ([6]; FIXa over FXIIa): >4000; IC50 [6]: > 180 µM; selectivity index (IC50 enzyme/IC50 FXIIa) [1]: 0.42; HS (Hill slope) ([2]; FXIa): 0.9 ± 0.1; ΔY (%) ([2]; FXIa): 100.3 ± 3.1%; selectivity index (IC50 enzyme/IC50 FXIIa) [2]: 331.11; HS (Hill slope) ([9]; FXa): 1.2 ± 0.2; ΔY (%) ([9]; FXa): 100.8 ± 2.7%; selectivity index (IC50 enzyme/IC50 FXIIa) ([9]; FXa over FXIIa): 1057.78; IC50 ([9]; FXa, pH 7.4, 37 °C): 47.6 ± 5.8 µM

Second part, led by results:

HS (Hill slope) [1]	ΔY (%) [1] [%]	IC50 [1] [µM]	IC50 ([2]; FXIa) [µM]	IC50 [3] [µM]	HS (Hill slope) ([3]; human FXIIa)	ΔY (%) efficacy of inhibition ([3]; human FXIIa) [%]	SMILES	further results
1.2 ± 0.2	118 ± 7	0.3 ± 0.05	> 50	0.032 ± 0.008	0.8 ± 0.1	74 ± 7	COC(=O)c1nc(N)n(C(=O)c2ccc(F)cc2)n1 [compound 22]	EC50 ([7]; human plasma, read-out: APTT (EC×1.5), effective concentration to double the clotting time): 25 to 75 µM; selectivity index (IC50 enzyme/IC50 FXIIa) [1]: 9.38; selectivity index (IC50 enzyme/IC50 FXIIa) [2]: >1562.50; IC50 [3, 10]: 0.032 ± 0.008 µM; fold increase in FXIIa inhibition potency ([3]; relative to inhibitor 9): 7.5 fold; fold more potent FXIIa inhibitor ([3]; than inhibitor RA): 3.4 fold; subclass of inhibitor based on selectivity studies [3]: more specific inhibitors of FXIIa
–	–	–	–	–	1.4 ± 0.7	82 ± 8	CC(C)(C)c1ccc(C(=O)n2ncnc2N)cc1 [compound 10]	IC50 ([3]; FXIIa, summary picture in supplement): 8.5 µM; IC50 [3, 10]: 8.5 ± 1.2 µM; fold less potent FXIIa inhibitor ([3]; than inhibitor RA): 77.3 fold
–	–	–	> 50	–	–	–	Cc1cccc(C(=O)n2cnnc2N)c1 [compound 24]	inhibition at 50 µM ([1]; read-out: inhibition of thrombin at 50 μM): 43%
0.5 ± 0.02	112 ± 10	0.9 ± 0.2	> 50	0.9 ± 0.1	0.5 ± 0.02	109 ± 2	COC(=O)c1nc(N)n(C(=O)c2ccc(Br)cc2)n1 [compound 21]	selectivity index (IC50 enzyme/IC50 FXIIa) [1]: 1.00; selectivity index (IC50 enzyme/IC50 FXIIa) [2]: >55.56; fold decrease in FXIIa inhibition potency ([3]; relative to inhibitor 20 (bromine ortho to para)): ~11.3 fold; subclass of inhibitor based on selectivity studies [3]: dual inhibitors of FXIIa as well as thrombin
